The subject of one data set is Spodoptera littoralis. As to the kind of experiment: Insecticidal leaf dip bioassay on S. littoralis larvae (castor bean leaf discs). In kind it is in vivo, Spodoptera littoralis (cotton leafworm, laboratory strain). The note with it: for Toxicity index %: 72 hours, fenoxycarb's LC50 / compound's LC50 * 100; for LC50: Spodoptera littoralis, in Gossypium hirsutum, foliar, 72 h. As for the experimental part: Five concentrations (200, 100, 50, 25, 12.5 ppm) were designed for this synthetic compound and the reference fenoxycarb's compound as the dynamic ingredients based on ppm via diluting the commercial formulation.
In this experiment, the synthetic compound was tested for its insecticidal bioactivity using the industry-standard leaf dip bioassay techniques. Preparation of the compound stocks to create […], 0.1 g of compounds 2 were dissolved in five mL of Dimethyl formamide & combined with 5 mL of distilled water. Until usage, the stocks were kept in a refrigerator. The target substance test results were noted & the concentrations needed to destroy 50% (LC50) of S. littoralis larvae were calculated. The target compound was employed in five different concentrations, and 0.1% Tween 80 was employed as a surfactant. Castor bean leaf discs (nine centimeters in diameter) were dipped in the concentration under test for ten seconds, then fed to 2th and 4th larvae, which were roughly the same size and housed in glass jars (five pound). Each action carried out 3 times with ten larvae each. The mortality equalized via Abbott's formula. Calculations of mortality setback line were measurably rummage via probity analysis. Harmfulness index was strongminded via sun equations. The mortality results of larval insect were estimated through employing probit analysis through a statistics (LDP-line) equation which estimate the LC50 values with 95% fiducially limits of lower, upper confidence limit and slope.

In a further data set the test system is aquatic insects. The note with it: cited from earlier work.

≈ marks a conversion by molar mass, not a printed value. Where two headings read alike, the source gives them in different places.

As for `CCOC(=O)NCCOc1ccc(Oc2ccccc2)cc1` [fenoxycarb], the Toxicity index % with Spodoptera littoralis (2nd instar larvae) and in the data set with Spodoptera littoralis (4th instar larvae) was 100% each time. In addition, the LC50 in the data set on Spodoptera littoralis (read-out: LC50 (mg/L) at 95%, 2nd instar larvae, after 72 hours of treatment, leaf dip) came to 5.94 mg/L (≈ 19.7 µM); with Spodoptera littoralis (read-out: LC50 (mg/L) at 95%, 4th instar larvae, after 72 hours of treatment, leaf dip), 59.9 mg/L (≈ 199 µM).
For `CCc1ccc(C(=O)NN(C(=O)c2cc(C)cc(C)c2)C(C)(C)C)cc1` [tebufenozide], the LC50 with aquatic insects is 100 to 1000 mg/L.
On to `CC(CNC(=O)c1cc([N+](=O)[O-])cc([N+](=O)[O-])c1)OC(=S)Nc1ccc(Cl)cc1` (stereo not shown) [Compound 2, O-{1-[(3,5-dinitrobenzoyl)amino]propan-2-yl} (4-chlorophenyl)carbamothioate], for which the Toxicity index % with Spodoptera littoralis (2nd instar larvae) is reported as 47.52%; with Spodoptera littoralis (4th instar larvae) it was 88.23%. Moreover, the “LC50 (mg/L) at 95%” value with Spodoptera littoralis (2nd instar larvae, after 72 hours of treatment, leaf dip) is on record as “about 12.505 mg/L”. For the same compound, the LC50 with Spodoptera littoralis (2nd instar larvae, after 72 hours of treatment, leaf dip, read-out: LC50 (mg/L) at 95%) is 12.5 mg/L (≈ 28.5 µM); in the data set with Spodoptera littoralis (4th instar larvae, after 72 hours of treatment, leaf dip, read-out: LC50 (mg/L) at 95%), around 67.9 mg/L (≈ 155 µM).
